Data taken from patent publication US20250099383A1, “COMPOSITIONS AND METHODS FOR DELIVERY OF NUCLEIC ACIDS” (Poseida Therapeutics, Inc., priority 2022, published 2025).

Columns and labels:
[1] = Body weight change of mice after LNP administration; format: in vivo, BALB/C mice; details: for Ave weight change (gram) n = 3: 24 hrs after 0.5 mg/kg LNP encapsulating firefly luciferase mRNA, adult female BALB/C mice; for % Body Weight Change 24 hr: LNP compositions of Table 25, 0.5 mg/kg fLuciferase mRNA i.v., 24 hr post-administration vs baseline
Experimental: The mice above were also monitored for changes in body weight after LNP delivery. Mice were manually weighed on a scale before LNP dosage and then weighed 24 hrs after administration of 0.5 mg/kg of LNP article encapsulating Cleancap firefly luciferase mRNA. The average of weight change n=3 is reported below.
In addition, the body weight of mice treated with the LNP compositions of Table 25 was assessed prior to intravenous administration and twenty-four hours post-administration and the body weights at baseline and post-treatment were compared. The average percentage of body weight change for each group of mice treated with each LNP composition of Table 25 is shown in Table 28. […]

[2] = Physical characteristics of LNPs (particle size, PDI); format: physicochemical; details: for PDI DNA / Particle Size (nm) DNA: LNP with Fluc DNA, compound/DOPE/Cholesterol/DMG-PEG2000 38/50/10.0/2.0, Lipid:DNA 45:1 (w/w); for PDI RNA / Particle Size (nm) RNA: LNP with Fluc mRNA, compound/DOPE/Cholesterol/DMG-PEG2000 41.44/45.85/10/2.7, Lipid:RNA 40:1 (w/w)
Experimental: LNP compositions of the present disclosure comprising exemplary compounds of Formula (I) were prepared by combining various percentages of an exemplary compound of Formula (I), the phospholipid DOPE, the structural lipid cholesterol (Chol) and 1,2-dimyristoyl-sn-glycerol methoxypolyethylene glycol (DMG-PEG2000; Avanti Polar Lipids, Alabaster, Alabama, USA).
Individual 25 mg/ml stock solutions were prepared by solubilizing the lipids in 200-proof HPLC-grade ethanol and stock solutions were stored at −80° C. until formulated. At the time of formulation, the lipid stock solutions were briefly allowed to equilibrate to room temp and then placed on a hot plate maintained at a temperature range of 50-55° C.
A 1 mg/ml solution of the desired mRNA or DNA to be incorporated into the LNPs was added to 150 mM sodium acetate buffer (pH 5.2) to form a stock solution and kept on ice. The aqueous mRNA or DNA was then added to the lipids as shown in Table 4 or 5 and hand-mixed vigorously with a single channel pipettor.
The resultant mRNA or DNA LNP compositions were then transferred to a Repligen Float-A-Lyzer dialysis device-having a molecular weight cut off (MWCO) of 8-10 kDa (Spectrum Chemical Mfg. Corp, CA, USA) and processed by dialysis against phosphate buffered saline (PBS) (dialysate: dialysis buffer volume at least 1:200 v/v), pH 7.4 overnight at 4° C. (or alternatively room temperature for at least 4 hours), to remove the 25% ethanol and achieve a complete buffer exchange. In some experiments the LNPs were further concentrated by in an Amicon® Ultra-4 centrifugal filter unit, MWCO-30 kDa (Millipore Sigma, USA) spun at ˜4100 x g in an ultracentrifuge. The mRNA and DNA LNPs were then stored at 4° C. until further use.
LNP compositions of the present disclosure comprising mRNA or DNA encoding firefly luciferase (hereafter “Fluc”; TriLink) and COMPOUNDS 5-49 were prepared as described in Example 61 by combining one of COMPOUNDS 5-49, the phospholipid DOPE, the structural lipid cholesterol (Chol) and 1,2-dimyristoyl-sn-glycerol methoxypolyethylene glycol (DMG-PEG2000) in the percentages presented in Tables 6 and 7:
The physical characteristics of the resulting LNPs were analyzed.
A 1 mg/ml solution of the 5′-CleanCap--fLuciferase mRNA (TriLink Biotech) to be incorporated into the LNPs was added to 150 mM sodium acetate buffer (pH 5.2) to form a stock solution and kept on ice. The lipid phase was mixed with the aqueous mRNA phase inside a microfluidic chip using a NanoAssemblr® instrument (Precision Nanosystems, Vancouver, BC, Canada) according to the manufacturer's instructions to form LNP compositions comprising encapsulated mRNAs.
The average particle size diameter of the LNPs was approximately 75-150 nm.

liver cells [3] = test: In vivo LNP delivery of firefly luciferase mRNA to liver, bioluminescent imaging (BLI); set-up: species or system BALB/C mice; details: 0.5 mg/kg fLuciferase mRNA i.v., BLI at 4 hr; for Ave flux (p/s) n = 3: adult female BALB/C mice, LNP as in Example 66; for Mean Liver Luciferase Flux (p/s): LNP compositions of Table 25, adult female BALB/C, n=3
Experimental: Adult female BALB/C mice (n=3/group) were intravenously administered 0.5 mg/kg of 5′-CleanCap-fLuciferase mRNA (TriLink Biotech) formulated with LNP compositions as described in Example 66. One group of mice was treated with vehicle (PBS, Thermo Fisher Scientific, USA) as a negative control.
(§1) The location and extent of luciferase expression in treated and control mice were determined at 4 hr by bioluminescent imaging (BLI) of anesthetized mice using an IVIS Lumina in vivo imaging system (Perkin Elmer) according to the manufacturer's instructions. Briefly, mice were anesthetized using isoflurane in oxygen, and placed supine on a heated stage. Mice were then administered D-luciferin (Perkin-Elmer #122799) IP, and BLI was performed.
Adult female BALB/C mice (n=3/group) were intravenously administered 0.5 mg/kg of 5′-CleanCap-fLuciferase mRNA (TriLink Biotech) formulated with the LNP compositions shown in Table 25. One group of mice was treated with vehicle (PBS, Thermo Fisher Scientific, USA) as a negative control. […]

liver cells [4] = test: In vivo LNP delivery of nanoplasmid CMV-firefly luciferase DNA to liver of juvenile mice, BLI; details: juvenile female BALB/C mice age 14 days; 0.25 mg/kg nanoplasmid CMV-firefly luciferase retroorbital i.v.; BLI at 4 hr
Experimental: Juvenile female BALB/C mice of age 14 days (n=4/group) were retroorbitally intravenously administered 0.25 mg/kg of nanoplasmid CMV-firefly luciferase (Nature Technology Corp) formulated with LNP compositions as described in Example 66. One group of mice was treated with vehicle (PBS, Thermo Fisher Scientific, USA) as a negative control.
as §1

| PDI DNA [2] | Particle Size (nm) DNA [2] [nm] | PDI RNA [2] | Particle Size (nm) RNA [2] [nm] | SMILES | Ave weight change (gram) n = 3 [1] [gram] | Ave flux (p/s) n = 3 (liver cells [3]) [p/s] | % Body Weight Change 24 hr [1] | Mean Liver Luciferase Flux (p/s) (liver cells [3]) | Ave flux (p/s) n = 4 (liver cells [4]) [p/s] |
| --- | --- | --- | --- | --- | --- | --- | --- | --- | --- |
| 0.167 | 319.6 | 0.073 | 312.8 | CC(C)=CCC/C(C)=C/CCC1=CCC(C(=O)OCCOC(=O)CCN(CCC(=O)OCCOC(=O)C2CC=C(CC/C=C(\C)CCC=C(C)C)CC2)CC(C)N(CCC(=O)OCCOC(=O)C2CC=C(CC/C=C(\C)CCC=C(C)C)CC2)CCC(=O)OCCOC(=O)C2CC=C(CC/C=C(\C)CCC=C(C)C)CC2)CC1 (stereo not drawn) [Compound 8] | −2.53 | 1.10E+07 | – | – | – |
| 0.123 | 330.9 | 0.129 | 314.0 | CC(C)=CCC/C(C)=C/CCC1=CCC(C(=O)OCCOC(=O)CCN(CCCN2CCN(CCCN(CCC(=O)OCCOC(=O)C3CC=C(CC/C=C(\C)CCC=C(C)C)CC3)CCC(=O)OCCOC(=O)C3CC=C(CC/C=C(\C)CCC=C(C)C)CC3)CC2)CCC(=O)OCCOC(=O)C2CC=C(CC/C=C(\C)CCC=C(C)C)CC2)CC1 (stereo not drawn) [Compound 9, ((3,3′,3″,3′″-((piperazine-1,4-diylbis(propane-3,1-diyl))bis(azanetriyl))tetrakis(propanoyl))tetrakis(oxy))tetrakis(ethane-2,1-diyl)tetrakis(4-((E)-4,8-dimethylnona-3,7-dien-1-yl)cyclohex-3-enecarboxylate)] | −3.03 | 1.77E+10 | +1.4% | 4.62e10 | – |
| 0.108 | 326.3 | 0.142 | 354.0 | CC(C)CCCC(C)CCCC1CCC(C(=O)OCCOC(=O)CCN(CCCN2CCN(CCCN(CCC(=O)OCCOC(=O)C3CCC(CCCC(C)CCCC(C)C)CC3)CCC(=O)OCCOC(=O)C3CCC(CCCC(C)CCCC(C)C)CC3)CC2)CCC(=O)OCCOC(=O)C2CCC(CCCC(C)CCCC(C)C)CC2)CC1 (stereo not drawn) [Compound 16, ((3,3′,3″,3″-((piperazine-1,4-diylbis(propane-3,1-diyl))bis(azanetriyl))tetrakis(propanoyl))tetrakis(oxy))tetrakis(ethane-2,1-diyl)tetrakis(4-(4,8-dimethylnonyl)cyclohexanecarboxylate)] | −3.60 | 3.67E+10 | – | – | 8905000000 |
| 0.129 | 287.7 | 0.145 | 293.3 | CC(C)CCCC(C)CCCC1CCC(C(=O)OCCOC(=O)CCN(CCCN(C)CCCN(CCC(=O)OCCOC(=O)C2CCC(CCCC(C)CCCC(C)C)CC2)CCC(=O)OCCOC(=O)C2CCC(CCCC(C)CCCC(C)C)CC2)CCC(=O)OCCOC(=O)C2CCC(CCCC(C)CCCC(C)C)CC2)CC1 (stereo not drawn) [Compound 17] | −3.10 | 2.96E+10 | – | – | – |
| 0.131 | 213.9 | 0.133 | 220.1 | CC(C)=CCCC1=CCC(C(=O)OCCOC(=O)CCN(CCCN(C)C)CCC(=O)OCCOC(=O)C2CC=C(CCC=C(C)C)CC2)CC1 (stereo not drawn) [Compound 19, ((3,3′-((3-(dimethylamino)propyl)azanediyl)bis(propanoyl))bis(oxy))bis(ethane-2,1-diyl)bis(4-(4-methylpent-3-en-1-yl)cyclohex-3-enecarboxylate)] | 0.70 | 1.10E+06 | – | – | – |
| 0.141 | 255.5 | 0.176 | 330.9 | CC(C)=CCCC1=CCC(C(=O)OCCOC(=O)CCN(CCCN2CCN(CCCN(CCC(=O)OCCOC(=O)C3CC=C(CCC=C(C)C)CC3)CCC(=O)OCCOC(=O)C3CC=C(CCC=C(C)C)CC3)CC2)CCC(=O)OCCOC(=O)C2CC=C(CCC=C(C)C)CC2)CC1 (stereo not drawn) [Compound 22] | −6.40 | 9.27E+09 | +1.2% | 1.84e10 | – |
| 0.189 | 332.8 | 0.184 | 434.4 | CC(C)=CCCC1=CCC(C(=O)OCCOC(=O)CCN(CCCN(C)CCCN(CCC(=O)OCCOC(=O)C2CC=C(CCC=C(C)C)CC2)CCC(=O)OCCOC(=O)C2CC=C(CCC=C(C)C)CC2)CCC(=O)OCCOC(=O)C2CC=C(CCC=C(C)C)CC2)CC1 (stereo not drawn) [Compound 23] | −5.97 | 6.24E+09 | – | – | 3012500000 |
| 0.081 | 317.2 | 0.197 | 422.3 | CC(C)CCCC1CCC(C(=O)OCCOC(=O)CCN(CCCN2CCN(CCCN(CCC(=O)OCCOC(=O)C3CCC(CCCC(C)C)CC3)CCC(=O)OCCOC(=O)C3CCC(CCCC(C)C)CC3)CC2)CCC(=O)OCCOC(=O)C2CCC(CCCC(C)C)CC2)CC1 (stereo not drawn) [Compound 29] | −6.07 | 2.44E+10 | −2.4% | 3.02e10 | 9120000000 |
| 0.063 | 267.9 | 0.145 | 339.9 | CC(C)CCCC1CCC(C(=O)OCCOC(=O)CCN(CCC(=O)OCCOC(=O)C2CCC(CCCC(C)C)CC2)CCN(CCN(CCC(=O)OCCOC(=O)C2CCC(CCCC(C)C)CC2)CCC(=O)OCCOC(=O)C2CCC(CCCC(C)C)CC2)CCN(CCC(=O)OCCOC(=O)C2CCC(CCCC(C)C)CC2)CCC(=O)OCCOC(=O)C2CCC(CCCC(C)C)CC2)CC1 (stereo not drawn) [Compound 31] | −4.10 | 2.24E+09 | – | – | – |
